# In publication PMC3943433 (Journal of medicinal chemistry, 2013):
# Read-outs that look alike come from different tables or passages of the source.
# Columns and labels:
# [1] = target: T1, SHV-1 β-lactamase (Klebsiella pneumoniae, UniProt P0AD64)
# [2] = target: T2, SHV K234R β-lactamase (Klebsiella pneumoniae, UniProt P0AD64, K230R); experiment: Far-UV circular dichroism and thermal denaturation in the presence of inhibitors; conditions: for ΔHVH: K234R 10 µM with 50 µM inhibitor, van't Hoff plot; for effect on secondary structure (far UV CD): K234R 10 µM, 50 µM inhibitor
# [3] = target: T2, SHV K234R β-lactamase; experiment: Ki by direct competition assay with nitrocefin; format: biochemical; conditions: for fold lower Ki for K234R relative to SHV-1: K234R vs SHV-1
# [4] = target: T1, SHV-1 β-lactamase; format: biochemical
# [5] = target: T2, SHV K234R β-lactamase; experiment: Steady-state kinetics with β-lactam substrates; format: biochemical; conditions: K234R relative to SHV-1, from kcat/Km (eq 3)
# [6] = system: E. coli DH10B expressing blaSHV K234X (other 16 amino acid substitutions); experiment: MIC by Mueller-Hinton agar dilution; format: cell-based; conditions: Escherichia coli, E. coli blaSHV K234X (other 16 substitutions); β-lactam alone
# [7] = system: CC(=O)OCC1=C(C(=O)O)N2C(=O)[C@@H](NC(=O)Cc3cccs3)[C@H]2SC1; experiment: Steady-state kinetics with β-lactam substrates; format: biochemical, Klebsiella pneumoniae; conditions: other: SHV-1, substrate, 10 mM PBS pH 7.4, room temperature
# [8] = system: CCN1CCN(C(=O)N[C@@H](C(=O)N[C@@H]2C(=O)N3[C@@H]2SC(C)(C)[C@@H]3C(=O)O)c2ccccc2)C(=O)C1=O; experiment: Steady-state kinetics with β-lactam substrates; format: biochemical, Klebsiella pneumoniae; conditions: other: SHV-1, substrate, 10 mM PBS pH 7.4, room temperature
# [9] = system: O=C(Cc1cccs1)N[C@@H]1C(=O)N2C(C(=O)O)=C(/C=C/c3ccc([N+](=O)[O-])cc3[N+](=O)[O-])CS[C@H]12; experiment: Steady-state kinetics with β-lactam substrates; format: biochemical, Klebsiella pneumoniae; conditions: other: SHV-1, substrate, 10 mM PBS pH 7.4, room temperature
# [10] = system: E. coli DH10B; format: cell-based; conditions: inhibitor in the presence of 50 µg/mL ampicillin
# [11] = system: E. coli DH10B expressing blaSHV-1; experiment: MIC by Mueller-Hinton agar dilution; format: cell-based; conditions: E. coli blaSHV-1; inhibitor in the presence of 50 µg/mL ampicillin
# [12] = system: E. coli DH10B expressing blaSHV K234R; format: cell-based; conditions: inhibitor in the presence of 50 µg/mL ampicillin
# [13] = system: E. coli DH10B expressing blaSHV K234A; format: cell-based; conditions: inhibitor in the presence of 50 µg/mL ampicillin
# [14] = SHV-1 10 µM with 50 µM inhibitor, van't Hoff plot
compound,measurement,setting,value
O=C(Cc1cccs1)NCB(O)O [Achiral Cephalothin BATSI],ΔHVH,[1]; [14],160 kcal/mol
same,ΔHVH,[2],100 kcal/mol
same,effect on secondary structure (far UV CD),[2],affect the secondary structure
N[C@@H](C(=O)N[C@@H](Cc1cccc(C(=O)O)c1)B(O)O)c1ccccc1 [Chiral Ampicillin BATSI],fold lower Ki for K234R relative to SHV-1,[3],23 fold
same,ΔHVH,[1]; [14],143 kcal/mol
same,ΔHVH,[2],119 kcal/mol
same,increase of melting temperature,[2]; K234R with inhibitor vs apo,6.6 °C
O=C(Cc1cccs1)N[C@@H](Cc1cccc(C(=O)O)c1)B(O)O [Chiral Cephalothin BATSI],fold lower Ki than the achiral BATSI,[4],44 fold
same,"fold difference in Ki, achiral vs chiral cephalothin BATSI",[3]; K234R,5000 fold
same,fold lower Ki for K234R relative to SHV-1,[3],38 fold
"O=C(O)[C@H]1/C(=C/CO)O[C@@H]2CC(=O)N21 [Clavulanate, clavulanate]",effect on secondary structure (far UV CD),[1],affects the secondary structure of both enzymes
same,ΔHVH,[1],113 kcal/mol
same,ΔΔGu,[1],+0.28 kcal/mol
same,ΔHVH,[2],68 kcal/mol
same,effect on secondary structure (far UV CD),[2],affects the secondary structure of both enzymes
"O=C(Cc1cccs1)N[C@@H]1C(=O)N2C(C(=O)O)=C(/C=C/c3ccc([N+](=O)[O-])cc3[N+](=O)[O-])CS[C@H]12 [Nitrocefin, nitrocefin]",ΔΔGcat,[5],+0.70 kcal/mol
"CC1(C)[C@H](C(=O)O)N2C(=O)C[C@H]2S1(=O)=O [Sulbactam, sulbactam]",effect on secondary structure (far UV CD),[1],not SHV-1
same,ΔHVH,[1],183 kcal/mol
same,ΔΔGu,[1],+0.07 kcal/mol
same,effect on secondary structure (far UV CD),[2],affect the secondary structure
"C[C@]1(Cn2ccnn2)[C@H](C(=O)O)N2C(=O)C[C@H]2S1(=O)=O [Tazobactam, tazobactam]",ΔHVH,[1]; [14],149 kcal/mol
same,effect on secondary structure (far UV CD),"[1]; SHV-1 10 µM, 50 µM inhibitor",not SHV-1
same,ΔHVH,[2],114 kcal/mol
same,effect on secondary structure (far UV CD),[2],affect the secondary structure
"CC1(C)S[C@@H]2[C@H](NC(=O)[C@H](N)c3ccccc3)C(=O)N2[C@H]1C(=O)O [amp, ampicillin]",MIC,[6],≤ 4 µg/mL
"CCN1CCN(C(=O)N[C@@H](C(=O)N[C@@H]2C(=O)N3[C@@H]2SC(C)(C)[C@@H]3C(=O)O)c2ccccc2)C(=O)C1=O [pip, piperacillin]",MIC,[6],≤ 8 µg/mL
same,ΔΔGcat,[5],+0.33 kcal/mol
"CC(=O)OCC1=C(C(=O)O)N2C(=O)[C@@H](NC(=O)Cc3cccs3)[C@H]2SC1 [thin, cephalothin]",ΔΔGcat,[5],+1.00 kcal/mol
SHV-1 β-lactamase (Klebsiella pneumoniae),Km,[7],48.9 ± 11.2 µM
same,kcat,[7],42.6 ± 3.4 s⁻¹
same,kcat/Km,[7],870000 ± 300000 M⁻¹ s⁻¹
same,Km,[8],74.6 ± 11.7 µM
same,kcat,[8],1180 ± 65 s⁻¹
same,kcat/Km,[8],1.58e+07 ± 600000 M⁻¹ s⁻¹
same,Km,[9],24.7 ± 5 µM
same,kcat,[9],348 ± 21.5 s⁻¹
same,kcat/Km,[9],1.41e+07 ± 220000 M⁻¹ s⁻¹
ampicillin/clavulanate [amp/ clav],MIC,[10],<0.06 µg/mL
same,MIC,[11],4 µg/mL
same,MIC,[12],16 µg/mL
same,MIC,[13],<0.06 µg/mL
ampicillin/sulbactam [amp/ sul],MIC,[10],<0.06 µg/mL
same,MIC,[11],512 µg/mL
same,MIC,[12],64 µg/mL
same,MIC,[13],<0.06 µg/mL
ampicillin/tazobactam [amp/ tazo],MIC,[10],<0.06 µg/mL
same,MIC,[11],128 µg/mL
same,MIC,[12],16 µg/mL
same,MIC,[13],<0.06 µg/mL
